By IC50 is commonly meant the concentration needed to halve the response being measured.

In patent US12187729B2, “Compounds having PDE9A inhibitory activity, and pharmaceutical uses thereof” (KOREA RESEARCH INSTITUTE OF CHEMICAL TECHNOLOGY, priority 2018, dated 2025) one finds IC50 data, which are given here for eight compounds.

PDE9A, sequence (O76083 whole entry): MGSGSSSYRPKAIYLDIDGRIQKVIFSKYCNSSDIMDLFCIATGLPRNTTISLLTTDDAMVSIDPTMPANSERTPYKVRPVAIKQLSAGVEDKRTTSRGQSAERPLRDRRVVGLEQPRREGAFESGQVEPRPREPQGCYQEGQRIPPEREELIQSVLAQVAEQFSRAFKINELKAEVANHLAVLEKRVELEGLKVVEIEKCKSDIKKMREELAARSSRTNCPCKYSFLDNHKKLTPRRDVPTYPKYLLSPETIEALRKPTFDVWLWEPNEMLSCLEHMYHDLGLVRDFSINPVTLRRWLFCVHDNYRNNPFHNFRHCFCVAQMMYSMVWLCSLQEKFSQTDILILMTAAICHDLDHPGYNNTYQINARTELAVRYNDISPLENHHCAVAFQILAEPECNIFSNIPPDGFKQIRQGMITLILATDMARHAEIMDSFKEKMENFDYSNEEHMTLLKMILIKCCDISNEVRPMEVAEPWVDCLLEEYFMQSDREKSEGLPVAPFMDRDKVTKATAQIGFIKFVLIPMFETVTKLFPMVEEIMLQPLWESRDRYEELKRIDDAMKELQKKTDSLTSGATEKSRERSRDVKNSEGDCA

The target in this test is PDE9A (Homo sapiens (Human), UniProt O76083). The test is described as follows: PDE9A inhibitory activity, fluorescence polarization assay (IMAP-FP screening express kit). Type of test: biochemical. As to conditions: enzyme PDE9A 5 ng/ml, Fl-cGMP substrate 100 nM, room temperature 1 hour. The protocol:
The inhibitory activity of the representative compounds according to the present invention against phosphodiesterase 9A was tested based on the polarization assay (IMAP-FP screening express kit) provided by MDS (MDS Analytical Technologies, Sunyvale, CA, USA). As a buffer solution, a reaction solution (a reaction solution containing 0.01% Tween 20 provided by MDS was diluted 5 times, then 5 mM DTT is added) and a polarization detection solution (binding solution A and B provided by MDS were mixed at a ratio of 3:1 and IMAP binding reagent 1/600 was added) were prepared. 100 μM of the substrate (Fl-cGMP substrate; MDS) and 3.6 μg/ml of the enzyme PDE9A (ab54113; abeam) were prepared. 3.6 μg/ml PDE9A and 100 μM substrate were diluted to 20 ng/ml (final reaction concentration: 5 ng/ml) and 400 nM (final reaction concentration: 100 nM), respectively. The buffer solution used for all dilution and preparation processes was 1× reaction solution with 1 mM DTT added, and the polarization detection solution was used to induce polarization at the end.
The prepared samples were dispensed on black microplates (Multiwell 384 well plates, #3573, Corning Life Sciences, Lowell, MA, USA) using a 16-channel pipette (multi 16-channel, Finnpipette, Thermo Scientific, Essex, UK). The total reaction volume per well is 20 μl. At this time, 10 μl of 2% DMSO, 5 μl of substrate solution, and 5 μl of reaction solution were used as a negative control, and 10 μl of 2% DMSO, 5 μl of substrate solution, and 5 μl of PDE9A solution were used as a positive control. As the experimental group, 10 μl of the compound prepared in Example, 5 μl of the substrate solution, and 5 μl of the PDE9A solution were used. After pretreatment between the compound and the enzyme was performed for about […] before the enzyme-substrate reaction, 5 μl of cGMP was added to induce the enzyme reaction. During the reaction, each compound, enzyme, and substrate occupied 50%, 25%, and 25% of the total volume, respectively, and they were prepared at high concentrations of 2, 4, and 4 times, respectively, immediately before addition. After the enzymatic reaction, it was shaken lightly for 1 minute and the enzyme reaction was induced at room temperature for 1 hour. Then, 60 μl of a polarization detection solution prepared in advance was added to induce polarization.
Nanoparticles composed of trivalent metal ions are mixed in the fluorescence detection solution, which combines with phosphoric acid expose by enzymatic reaction to increase the molecular weight and induce polarization. After leaving for 2 hours at room temperature, the polarization (Fluorescence Polarization, FP) value was measured using a multilabel counter (Envision, PerkinElmer, Turku, Finland) (emission wavelength: P-535 nm, S-535 nm, excitation wavelength: 480 nm), and the result was expressed as an IC50 value, which is the concentration of the compound that inhibited PDE9A by 50% in vitro (Table 2).
For orientation: In fluorescence polarisation assays a small probe gives low polarisation when free and higher when bound to something large.
`CCSc1nnc(N(C)C(=O)CSc2nc3c(cnn3-c3ccccc3)c(=O)[nH]2)s1` [Example 18, N-(5-(ethylthio)-1,3,4-thiadiazol-2-yl)-N-methyl-2-((4-oxo-1-phenyl-4,5-dihydro-1H-pyrazolo[3,4-d]pyrimidin-6-yl)thio)acetamide] yielded an IC50 of 470 nM.
For `O=C(CSc1nc2c(cnn2C2CCCCC2)c(=O)[nH]1)Nc1nnc(Cl)s1` [Example 42, N-(5-chloro-1,3,4-thiadiazol-2-yl)-2-((4-oxo-1-cyclohexyl-4,5-dihydro-1H-pyrazolo[3,4-d]pyrimidin-6-yl)thio)acetamide] the value was 1 nM; for `O=C(CSc1nc2c(cnn2-c2ccccc2)c(=O)[nH]1)Nc1nnc(-c2ccccc2)s1` [Example 25, N-(5-phenyl-1,3,4-thiadiazol-2-yl)-2-((4-oxo-1-phenyl-4,5-dihydro-1H-pyrazolo[3,4-d]pyrimidin-6-yl)thio)acetamide], 12 nM; for `CC(Sc1nc2c(cnn2C2CCC(F)(F)CC2)c(=O)[nH]1)C(=O)Nc1nnc(Cl)s1` (centres unmarked) [Example 48, N-(5-chloro-1,3,4-thiadiazol-2-yl)-2-((1-(4,4-difluorocyclohexyl)-4-oxo-4,5-dihydro-1H-pyrazolo[3,4-d]pyrimidin-6-yl)thio)propanamide], 0.3 nM.
`O=C(CSc1nc2c(cnn2-c2ccc(F)cc2)c(=O)[nH]1)Nc1nnc(Br)s1` [Example 17, N-(5-bromo-1,3,4-thiadiazol-2-yl)-2-((1-(4-fluorophenyl)-4-oxo-4,5-dihydro-1H-pyrazolo[3,4-d]pyrimidin-6-yl)thio)acetamide]: half-maximal inhibition (IC50) required 27 nM.
In turn, `Cc1ccc(-c2nnc(NC(=O)CSc3nc4c(cnn4-c4ccccc4)c(=O)[nH]3)s2)cc1` [Example 24, 2-((4-oxo-1-phenyl-4,5-dihydro-1H-pyrazolo[3,4-d]pyrimidin-6-yl)thio)-N-(5-(p-tolyl)-1,3,4-thiadiazol-2-yl)acetamide] came in with an IC50 of 41 nM.
On to `CC(Sc1nc2c(cnn2C2CCOCC2)c(=O)[nH]1)C(=O)Nc1nnc(Cl)s1` (centres unmarked) [Example 47, N-(5-chloro-1,3,4-thiadiazol-2-yl)-2-((4-oxo-1-(tetrahydro-2H-pyran-4-yl)-4,5-dihydro-1H-pyrazolo[3,4-d]pyrimidin-6-yl)thio)propanamide], for which it took 0.1 nM to reach half-maximal inhibition (IC50).
For `Cc1ccc(-c2nnc(NC(=O)C(C)Sc3nc4c(cnn4-c4ccccc4)c(=O)[nH]3)s2)cc1` (centres unmarked) [Example 20, 2-((4-oxo-1-phenyl-4,5-dihydro-1H-pyrazolo[3,4-d]pyrimidin-6-yl)thio)-N-(5-(p-tolyl)-1,3,4-thiadiazol-2-yl)propanamide] the value was 19 nM.
